Data on five sequences can be found in patent publication US10709758B2 (priority 2015, dated 2020).

TcdB1, sequence (P18177 2-2366 limits assumed): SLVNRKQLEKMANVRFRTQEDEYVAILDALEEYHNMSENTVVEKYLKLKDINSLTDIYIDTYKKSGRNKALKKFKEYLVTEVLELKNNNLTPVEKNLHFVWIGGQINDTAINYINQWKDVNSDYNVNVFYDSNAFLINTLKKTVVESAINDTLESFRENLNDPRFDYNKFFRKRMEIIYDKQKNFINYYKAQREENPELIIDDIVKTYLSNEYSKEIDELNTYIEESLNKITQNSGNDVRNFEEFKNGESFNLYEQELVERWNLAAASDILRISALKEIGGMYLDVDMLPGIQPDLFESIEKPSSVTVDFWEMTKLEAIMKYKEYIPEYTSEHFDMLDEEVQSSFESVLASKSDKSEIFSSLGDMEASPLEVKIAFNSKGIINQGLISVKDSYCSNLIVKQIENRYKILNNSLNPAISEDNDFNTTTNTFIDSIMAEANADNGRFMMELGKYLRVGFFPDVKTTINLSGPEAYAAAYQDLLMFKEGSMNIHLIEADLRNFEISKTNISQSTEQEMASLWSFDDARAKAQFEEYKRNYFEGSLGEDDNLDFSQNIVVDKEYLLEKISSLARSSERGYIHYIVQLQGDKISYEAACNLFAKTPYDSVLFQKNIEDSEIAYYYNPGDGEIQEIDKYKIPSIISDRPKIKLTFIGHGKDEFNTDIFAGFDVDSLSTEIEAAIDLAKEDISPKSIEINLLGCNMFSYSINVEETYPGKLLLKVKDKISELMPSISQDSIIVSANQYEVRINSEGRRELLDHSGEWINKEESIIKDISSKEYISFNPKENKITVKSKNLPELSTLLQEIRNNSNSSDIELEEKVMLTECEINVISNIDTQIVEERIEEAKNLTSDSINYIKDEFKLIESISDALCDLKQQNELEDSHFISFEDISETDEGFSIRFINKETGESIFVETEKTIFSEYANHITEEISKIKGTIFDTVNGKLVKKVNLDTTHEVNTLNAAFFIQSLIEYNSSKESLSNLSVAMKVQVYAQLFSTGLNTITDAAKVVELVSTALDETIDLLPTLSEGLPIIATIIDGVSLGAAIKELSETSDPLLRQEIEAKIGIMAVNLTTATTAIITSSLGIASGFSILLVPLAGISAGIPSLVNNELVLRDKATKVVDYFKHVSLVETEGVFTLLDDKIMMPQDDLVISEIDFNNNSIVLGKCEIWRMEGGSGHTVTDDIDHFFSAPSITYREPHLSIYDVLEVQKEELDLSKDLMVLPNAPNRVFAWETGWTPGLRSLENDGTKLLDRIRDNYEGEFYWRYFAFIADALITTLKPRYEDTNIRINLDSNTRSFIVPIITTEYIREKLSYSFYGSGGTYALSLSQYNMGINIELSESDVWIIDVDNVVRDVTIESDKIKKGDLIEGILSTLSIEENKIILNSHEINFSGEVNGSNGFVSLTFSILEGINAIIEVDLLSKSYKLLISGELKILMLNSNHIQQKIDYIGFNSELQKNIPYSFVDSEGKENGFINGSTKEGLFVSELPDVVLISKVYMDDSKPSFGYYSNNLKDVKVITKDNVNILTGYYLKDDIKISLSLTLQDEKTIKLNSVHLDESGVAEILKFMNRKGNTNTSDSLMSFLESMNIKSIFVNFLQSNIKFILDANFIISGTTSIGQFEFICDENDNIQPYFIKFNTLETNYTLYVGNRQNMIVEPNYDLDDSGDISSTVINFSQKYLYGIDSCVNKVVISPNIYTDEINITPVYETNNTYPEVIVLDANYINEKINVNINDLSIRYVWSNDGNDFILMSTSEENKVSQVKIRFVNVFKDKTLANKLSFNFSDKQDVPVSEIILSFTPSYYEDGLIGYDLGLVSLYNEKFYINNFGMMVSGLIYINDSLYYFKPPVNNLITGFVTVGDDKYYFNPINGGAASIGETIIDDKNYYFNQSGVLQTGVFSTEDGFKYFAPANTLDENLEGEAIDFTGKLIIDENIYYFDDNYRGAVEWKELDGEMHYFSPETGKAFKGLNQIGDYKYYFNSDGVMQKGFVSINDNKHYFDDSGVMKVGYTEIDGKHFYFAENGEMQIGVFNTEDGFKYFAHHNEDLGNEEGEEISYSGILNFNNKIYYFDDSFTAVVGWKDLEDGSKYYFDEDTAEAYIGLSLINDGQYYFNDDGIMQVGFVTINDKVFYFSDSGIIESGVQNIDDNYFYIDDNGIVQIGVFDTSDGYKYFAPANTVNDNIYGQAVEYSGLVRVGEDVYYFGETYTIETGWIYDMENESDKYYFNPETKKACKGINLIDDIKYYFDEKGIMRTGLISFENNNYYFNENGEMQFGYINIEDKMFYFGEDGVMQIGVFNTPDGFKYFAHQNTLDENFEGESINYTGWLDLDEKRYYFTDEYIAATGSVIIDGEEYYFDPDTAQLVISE

The experiment addresses TcdB1 (Clostridioides difficile, UniProt P18177).
As to NVFKGKTISDKISFNFSDK [PepB2-N6K], the “TcdB inhibitory activity of PepB2/PepB1 substitution variants” value was “TcdB inhibitory activity also disappeared”. In the case of NVFKDNTISDKISFNFSDK [PepB2-G5D] it was “inhibitor activity was lost”; in that of NVFKGNTLANKLSFNFSDK [PepB1-DK5-6GN], “Inhibitory activity was gained”; in that of NVFKDKTISDKISFNFSDK [PepB2-GN5-6DK], “inhibitory activity of the resulting peptide was lost”. In the case of NVFKSNTISDKISFNFSDK [PepB2-G5S], the “TcdB inhibitory activity of PepB2/PepB1 substitution variants” value was “activity was also lost”.
